How the values were obtained:
LNCaP cells = test: trypan blue viable cell counting; type: cell-based, human
Experimental: (§1) For cell counting assay, cells were seeded at the density of 5×10^4 cells in 12-well plates in duplicates and allowed for attachment overnight. Cells were harvested daily for three days and the number of viable cells was counted using a hemocytometer after staining in trypan blue solution (Liao 2003).
(§2) First, the effect of LiCl on cell growth was investigated. AR-positive, androgen-dependent LNCaP cells or AR-null PC-3 cells were seeded in a 12-well plate overnight and then treated with or without LiCl in different doses.

PC-3 cells = test: trypan blue viable cell counting; type: cell-based, human
Experimental: as §1, §2

[1] = LiCl at a dose of less than 3 mM, up to three days

[Cl-].[Li+] [LiCl, Lithium chloride]
inhibition of cell growth (viable cell count) (LNCaP cells; LiCl 10 mM): significantly inhibited
mean doubling-time (LNCaP cells; LiCl 10 mM (no treatment 23.7 hours)): 33.3 h
inhibition of cell growth (viable cell count) (LNCaP cells; [1]): no obvious inhibition
inhibition of cell growth (viable cell count) (PC-3 cells; LiCl 10 mM): significantly inhibited
mean doubling-time (PC-3 cells; LiCl 10 mM (no treatment 21.5 hours)): 30.2 h
inhibition of cell growth (viable cell count) (PC-3 cells; [1]): no obvious inhibition
